Series [1] relates to Aphis gossypii. In words: Aphis gossypii - spray test (APHIGO S), cotton plants. To be noted: 144 h, 6 dat, read-out: % efficacy. The series is classed as in vivo.
In series [2] the test system is Myzus persicae. In words: Myzus persicae - spray test (MYZUPE S), bell pepper plants. The series is classed as in vivo. The note with it: 144 h, 6 dat, read-out: % efficacy. The procedure: Myzus persicae—Spray Test (MYZUPE S)
Solvent: 14 parts by weight of dimethylformamide
Emulsifier: alkylaryl polyglycol ether
To produce a suitable active compound preparation, 1 part by weight of active compound is dissolved with the specified parts by weight of solvent and made up with water containing an emulsifier concentration of 1000 ppm until the desired concentration is attained. To produce further test concentrations, the formulation is diluted with emulsifier-containing water. If the addition of ammonium salts or/and penetrants is required, these are each added in a concentration of 1000 ppm to the formulation solution.
Bell pepper plants (Capsicum annuum) severely infested with the green peach aphid (Myzus persicae) are treated by spraying with the active ingredient formulation in the desired concentration.
After the desired time, the kill in % is determined. 100% means that all the animals have been killed; 0% means that no animals have been killed.

Series [3] has as its system Myzus persicae. In words: Myzus persicae - drench test (MYZUPE D), Savoy cabbage in soil. To be noted: 240 h, 10 dat, read-out: % efficacy. It is filed as in vivo.
The test system of series [4] is Myzus persicae. In words: Myzus persicae - oral test (MYZUPE O). It is filed as in vivo. The note with it: 120 h, 5 dat, read-out: % efficacy.
Series [5] concerns Myzus persicae. In words: Myzus persicae - spray test (Chinese cabbage leaf discs). The series is classed as in vivo. To be noted: Myzus persicae, foliar; application rate 500 g/ha, after 5-6 days; read-out: efficacy. In a few lines: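 Chinese cabbage leaf discs carrying all aphid stages were sprayed with compound dissolved in acetone/dimethylformamide and diluted in water with 1000 ppm alkylaryl polyglycol ether emulsifier. Efficacy was recorded after 5-6 days as % aphids killed (100% = all, 0% = none).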

Series [6] relates to Myzus persicae. In words: Myzus persicae - spray test (MYZUPE), Chinese cabbage leaf discs. It is filed as in vivo. To be noted: foliar, 120 h, 5 dat.
Series [7] has as its system Myzus persicae. In words: Myzus persicae - oral test. It is filed as in vivo. To be noted: Myzus persicae, po, 120 h; application rate 20 ppm, after 5 days; read-out: efficacy. In a few lines:
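Aphid feeding test: compound dissolved in acetone, diluted with water and mixed with IPL41 insect medium plus sugar, offered through parafilm to a mixed population of green peach aphids. Mortality scored after 5 days as % efficacy (100% = all aphids dead, 0% = none dead).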

Series [8] is described as follows: log P by HPLC on reversed-phase (C18) columns, OECD Guideline 117. The note with it: reversed-phase (C18) HPLC column. It is filed as physicochemical. In a few lines:
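Reversed-phase C18 HPLC per OECD 117, LC-MS with a linear 10% to 95% acetonitrile gradient. Acidic method at pH 2.7 with 0.1% formic acid; neutral method at pH 7.8 with 0.001 M ammonium hydrogencarbonate.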

Like-named read-outs stand apart in the source and are kept apart here.

One molecule from patent publication US10689365B2, “Substituted 2-alkylimidazolylcarboxamides as pesticides” (Bayer CropScience Aktiengesellschaft, priority 2016, dated 2020) can be followed below.

In the case of `CCN(C(=O)c1cnc(CSCC(C)(C)C)n1C)c1cccnc1` [Example I-1-54], the percent kill (mortality) of aphids at a fixed dose at 0.8 ppm in series [1] (0.8 ppm) was found to be 90%. Further, the Emax at 4 ppm in series [1] (4 ppm) amounted to 95%; in series [4] it was 100%. Besides, the Emax at 0.16 ppm in series [2] was determined as 99%; in series [3], 90%. For the same molecule, the pest or weed control at 500 g/ha in series [5] was found to be 90%. Moreover, the percent efficacy (aphid mortality) at 20 g/ha in series [6] (20 g of ai/ha) was found to be 90%. This molecule yielded a percent efficacy (aphid mortality) at 100 g/ha in series [6] (100 g of ai/ha) of 90%. For the same molecule, the pest or weed control at 20 ppm in series [7] turned out to be 100%. In addition, the chromatographic logP in series [8] (acidic range, pH 2.7, 0.1% aqueous formic acid/acetonitrile, read-out: logP[a]) stood at 1.68; in series [8] (neutral range, pH 7.8, aqueous ammonium hydrogencarbonate/acetonitrile, read-out: logP[n]) it was 2.34.
